Results: patent publication US12234233B2, “Crystal form of phosphodiesterase inhibitor, preparation method therefor and use thereof” (TRANSTHERA SCIENCES (NANJING), INC., priority 2019, dated 2025)

What was measured:
[1] = Solubility in test solutions at different pHs and water; assay type: physicochemical; conditions: 37° C.
Procedure: (§1) Test substances: the compound of formula (I) was prepared by example 1 of the present invention, the crystal form I was prepared by example 2 of the present invention, the crystal form II was prepared by example 16 of the present invention, the crystal form III was prepared by example 20 of the present invention, the crystal form IV was prepared by example 24 of the present invention, the crystal form V was prepared by example 25 of the present invention, the crystal form VI was prepared by example 27 of the present invention, and the crystal form VII was prepared by example 31 of the present invention.
Preparation of Buffered Salt Solutions at Different pHs:
hydrochloric acid solution at pH 1.0:9 ml of hydrochloric acid was pipetted, and water was added for dilution to 1000 ml; the mixture was mixed homogeneously to obtain a hydrochloric acid solution at pH 1.03. Phosphate buffered solution at pH 4.5:1.56 g of sodium dihydrogen phosphate dihydrate was weighed, and 200 ml of water was added to obtain a phosphate buffered solution at pH 4.50. Phosphate buffered solution at pH 6.8:1.56 g of sodium dihydrogen phosphate dihydrate was weighed, and 200 ml of water was added; and the mixture was adjusted to pH 6.80 with 1 mol/L sodium hydroxide solution.
preparation of buffered solutions at different pHs (samples for determining solubility):
50 mg of each test substance was weighed, and 5 ml of the hydrochloric acid solution (pH 1.0) was added; and the mixture was mixed homogeneously with shaking. About 2.5 mg of each test substance was weighed, and 5 ml of the phosphate buffered solution (pH 4.5), 5 ml of the phosphate buffered solution (pH 6.8), and 5 ml of ultrapure water were added, respectively; the mixture was mixed homogeneously with shaking, and then placed in a 37° C. water bath shaker for shaking; the samples were collected at 24 hours and subjected to centrifugation; and the supernatant was taken and directly injected (if the solubility was high, the supernatant was diluted with a 0.1 mol/L hydrochloric acid solution to an appropriate multiple and then injected).
The solubility of the samples was quantitatively calculated according to the single-point external standard method.

[2] = Pharmacokinetic evaluation in rats; assay type: in vivo, male SD rats
Procedure: Test substances: the compound of formula (I) was prepared by example 1 of the present invention, and the crystal form I was prepared by example 2 of the present invention.
Administration to Animals and Sample Collection:
(§2) the compound of formula (I) for the experiment was dissolved with 2% DMSO+10% PEG400+88% (28% HP-3-CD) physiological saline to prepare a solution; the solution of the test substance was administered to SD rats by gavage at a dose of 5.0 mg/kg; and the blood sampling time points were 15 min, 30 min, 1 h, 2 h, 4 h, 6 h, 8 h and 24 h after administration.
as §2, with “The compound” for “the compound”, “by intravenous bolus” for “by gavage”, “of 1” for “of 5.0”, “were 5 min,” for “were”
The crystal form I for the experiment was dissolved with 5% DMSO+10% PEG400+85% (20% captisol) physiological saline solution to prepare a solution; the solution of the test substance was administered to SD rats by gavage at a dose of 60.0 mg/kg; and the blood sampling time points were 15 min, 30 min, 1 h, 2 h, 4 h, 8 h, 24 h, 30 h and 48 h after administration.
The crystal form I for the experiment was dissolved with 2% DMSO+10% PEG400+88% (28% HP-β-CD) physiological saline to prepare a solution; the solution of the test substance was administered to SD rats by intravenous bolus at a dose of 5 mg/kg; and the blood sampling time points were 5 min, 15 min, 30 min, 1 h, 4 h, 8 h, 12 h and 24 h after administration.
Compound of formula (I): the ordinary SD rats were used and fixed; the tails of the rats were heated in a water bath 10 minutes before each time point; and about 100 μL of blood was collected via a tail vein, and then placed in an anticoagulation tube containing EDTA-K2. The blood sample was centrifuged at 8000 rpm at 4° C. for 6 min to obtain a plasma sample, which was prepared within 30 minutes after blood collection. The plasma was stored in a refrigerator at −80° C. before the test.
Crystal form I: the rats were subjected to jugular vein cannulation (JVC); each time, about 0.35 ml of blood was collected from the rats via a jugular vein cannula into a centrifuge tube containing 5 μl of 15% EDTA-K2; the mixture was gently mixed to obtain a homogeneous mixture, and then the centrifuge tube was placed in an ice bath immediately. Within 1 hour after collecting whole blood, the mixture was centrifuged at 4° C. and 2400×g for 5 minutes, and the supernatant was immediately collected to obtain a plasma sample. The plasma was stored in a refrigerator at −80° C. before the test.
the plasma sample to be tested was taken out from the −80° C. refrigerator, subjected to natural melting at room temperature, and then vortexed for 5 min; […] of the plasma sample was precisely pipetted into a 1.5 mL centrifuge tube; […] of the internal standard working solution (tolbutamide in methanol) at a concentration of 100 ng/mL was added, and the mixture was mixed homogeneously; the homogeneous mixture was vortexed for 5 min, and then centrifuged at 12000 rpm for 5 min; 50 μL of the supernatant was precisely pipetted into a 96-well plate pre-filled with 150 μL of water/well; and the plate was vortexed for 5 min for homogenization, and subjected to LC-MS/MS assay, with a sample loading volume of 5 μL. […]

[3] = Stability test of different crystal forms; assay type: physicochemical
Procedure: as §1, with “substances:” for “substances: the compound of formula (I) was prepared by example 1 of the present invention,”
Method: the appropriate amount of different test substances were taken, and placed at 105° C. for 3 days, and at 60° C. and RH 92.5% under light for 5 days and 10 days, respectively; and the samples were collected on day 0, day 3, day 5 and day 10 to investigate the changes in the trait and content of the samples.
Table 5 and Table 6 show the results of the trait and content after placement at 105° C. for 3 days. Table 7 and Table 8 show the results of the trait and content after placement at 60° C. and RH 92.5% under light for 5 days. Table 9 and Table 10 show the results of the trait and content after placement at RH 92.5% under light for 10 days.

[4] = pH 1.0 hydrochloric acid solution
[5] = pH 4.5 phosphate buffered solution
[6] = pH 6.8 phosphate buffered solution
[7] = male SD rats, intravenous bolus 1 mg/kg

| SMILES | 24-hour solubility ([1]; Water) [µg/mL] | 24-hour solubility [1, 4] [µg/mL] | 24-hour solubility [1, 5] [µg/mL] | 24-hour solubility [1, 6] [µg/mL] | Content ([3]; 0 day) [%] | Trait ([3]; 0 day) | Content ([3]; Placed at 105° C. for 3 days) [%] | Trait ([3]; Placed at 105° C. for 3 days) | Content ([3]; Placed at RH 92.5% for 10 days) [%] | Trait ([3]; Placed at RH 92.5% for 10 days) | Content ([3]; Placed under light for 10 days) [%] | Trait ([3]; Placed under light for 10 days) | Content ([3]; Placed at 60° C. for 5 days) [%] | Content ([3]; Placed at RH 92.5% for 5 days) [%] | Content ([3]; Placed under light for 5 days) [%] | further results |
| --- | --- | --- | --- | --- | --- | --- | --- | --- | --- | --- | --- | --- | --- | --- | --- | --- |
| CCc1cc2c(N3CCC(C)(OC)CC3)c(C#N)c(=O)[nH]c2cn1 [Compound of formula (I), 6-ethyl-4-(4-methoxy-4-methylpiperidin-1-yl)-2-oxo-1,2-dihydro-1,7-diazanaphthal ene-3-carbonitrile] | 170 | 5270 | 160 | 160 |  |  |  |  |  |  |  |  |  |  |  | Tmax ([2]; Sprague-Dawley, rat, plasma, po, male SD rats, gavage 5.0 mg/kg): 30 min; pharmacokinetic characteristics ([2]; conclusion from Table 2, rats): excellent pharmacokinetic characteristics; AUClast PO/Dose ([2]; male SD rats, gavage 5.0 mg/kg): 387.2 h*ng/mL per mg/kg; tz1/2 PO ([2]; male SD rats, gavage 5.0 mg/kg): 2.68 h; AUClast iv/Dose [2, 7]: 748 h*ng/mL per mg/kg; Cl_obs iv [2, 7]: 24.2 mL/min/kg; Vz_obs iv [2, 7]: 2.13 L/kg; tz1/2 iv [2, 7]: 1.25 h |
| CCc1cc2c(N3CCC(C)(OC)CC3)c(C#N)c(=O)[nH]c2cn1 [Crystal form II, 6-ethyl-4-(4-methoxy-4-methylpiperidin-1-yl)-2-oxo-1,2-dihydro-1,7-diazanaphthal ene-3-carbonitrile] | 160 | 4540 | 160 | 140 | 99.8 | Yellow powder | 99.5 | Yellow powder | 99.8 | Yellow powder | 99.4 | Yellow powder |  |  |  |  |
| CCc1cc2c(N3CCC(C)(OC)CC3)c(C#N)c(=O)[nH]c2cn1 [Crystal form III, 6-ethyl-4-(4-methoxy-4-methylpiperidin-1-yl)-2-oxo-1,2-dihydro-1,7-diazanaphthal ene-3-carbonitrile] | 230 |  | 150 | 120 | 99.9 | Yellow powder | 99.7 | Yellow powder |  |  |  |  | 99.9 | 99.9 | 99.8 |  |
| CCc1cc2c(N3CCC(C)(OC)CC3)c(C#N)c(=O)[nH]c2cn1 [Crystal form IV, 6-ethyl-4-(4-methoxy-4-methylpiperidin-1-yl)-2-oxo-1,2-dihydro-1,7-diazanaphthal ene-3-carbonitrile] | 140 | 1640 | 130 | 130 | 90.9 | Yellow powder |  |  | 90.8 | Yellow powder | 90.9 | Yellow powder |  |  |  |  |
| CCc1cc2c(N3CCC(C)(OC)CC3)c(C#N)c(=O)[nH]c2cn1 [Crystal form V, 6-ethyl-4-(4-methoxy-4-methylpiperidin-1-yl)-2-oxo-1,2-dihydro-1,7-diazanaphthal ene-3-carbonitrile] | 330 | 4670 | 350 | 360 | 97.3 | Yellow powder |  |  | 97.4 | Yellow powder | 98.1 | Yellow powder |  |  |  |  |

Further lines, with some results ahead:

| 24-hour solubility ([1]; Water) [µg/mL] | 24-hour solubility [1, 4] [µg/mL] | 24-hour solubility [1, 5] [µg/mL] | 24-hour solubility [1, 6] [µg/mL] | Content ([3]; 0 day) [%] | Trait ([3]; 0 day) | Content ([3]; Placed at 105° C. for 3 days) [%] | Trait ([3]; Placed at 105° C. for 3 days) | Content ([3]; Placed at RH 92.5% for 10 days) [%] | Trait ([3]; Placed at RH 92.5% for 10 days) | Content ([3]; Placed under light for 10 days) [%] | Trait ([3]; Placed under light for 10 days) | Content ([3]; Placed at 60° C. for 5 days) [%] | Content ([3]; Placed at RH 92.5% for 5 days) [%] | Content ([3]; Placed under light for 5 days) [%] | SMILES | further results |
| --- | --- | --- | --- | --- | --- | --- | --- | --- | --- | --- | --- | --- | --- | --- | --- | --- |
| 260 |  | 170 | 140 | 99.9 | Yellow powder | 99.7 | Yellow powder |  |  |  |  | 99.8 | 99.9 | 99.6 | CCc1cc2c(N3CCC(C)(OC)CC3)c(C#N)c(=O)[nH]c2cn1 [Crystal form VI, 6-ethyl-4-(4-methoxy-4-methylpiperidin-1-yl)-2-oxo-1,2-dihydro-1,7-diazanaphthal ene-3-carbonitrile] |  |
| 150 | 7550 | 140 | 130 | 100.0 |  |  |  |  |  |  |  | 99.9 | 100.0 | 99.6 | CCc1cc2c(N3CCC(C)(OC)CC3)c(C#N)c(=O)[nH]c2cn1 [Crystal form VII, 6-ethyl-4-(4-methoxy-4-methylpiperidin-1-yl)-2-oxo-1,2-dihydro-1,7-diazanaphthal ene-3-carbonitrile] |  |
